In patent US20100092562A1, “SUSTAINED-RELEASE DRUG DELIVERY COMPOSITIONS AND METHODS” (priority 2002, published 2010):
Counter-ions that a name gives are not always drawn. Like-named read-outs stand apart in the source and are kept apart here.

Experiments:
[1] = Release profile of base vs salt forms of drugs in liquid controlled release compositions, USP Apparatus 2; format: physicochemical; details: liquid sustained release compositions, 65% W/W sucrose; stored 3 weeks at room temperature
[2] = cited from earlier work
[3] = sodium alginate 0.877 g/L, 25° C.
Procedure: The studies were performed with a two compartment plexiglass dialysis cell (Hollenbeck laboratory) and having a cellulose membrane (molecular weight cutoff of 6000 Daltons) Bel-Art Products (Pequannock, N.J.) placed between the two cell compartments. […] The dialysis cell was shaken at 80 RPM in a thermostatic water bath at 25° C. until equilibrium was reached (30 h). The solution was removed from the drug compartment and the concentrations of free drug and polymer-bound drug measured by high performance liquid chromatography (“HPLC”).

[4] = Effect of sucrose concentration in dispersion medium on albuterol release, USP Apparatus 2; format: physicochemical; details: alginate beads, 20% coating; stored 1 week at room temperature
Procedure: The experiment was carried out with 16 mg of albuterol bound to the alginic acid resin, with 20% coating, and 40%, 50%, 60% or 65% W/W of sucrose in the dispersion medium. First, the alginate beads were loaded with the drug albuterol, where 5% of albuterol and 5% of alginic acid were used. Albuterol and alginic acid powders were placed in a beaker, 100 ml of water was added, and the mixture was stirred until a homogenous gel was formed. Then, 70% microcrystalline cellulose and 20% lactose were placed into a bowl of a low shear mixer and pre-blended with a spatula. Then, the albuterol-alginate gel was incrementally added to the microcrystalline cellulose and lactose blend and mixed to produce a wet mass. Additional 50 ml of water was added to the beaker to wash down its sides and added to the wet mass during its blending, and the resulting wet mass was transferred into a polyethylene bag. Then, the resulting wet mass material was extruded using a dome screen attachment with 0.8 mm screen size at 55 rpm, with the wet mass being gradually added into the extruder. Subsequently, the extrudate was spheronized at 750 rpm for approximately 30 sec, and then dried overnight in a convection oven at 45° C. The beads of appropriate size (material that passed through 16 mesh screens and retained on 20 mesh screens) were selected. […]

[5] = total drug concentration 4.97 (M × 10^4)
[6] = total drug concentration 5.47 (M × 10^4)
[7] = total drug concentration 5.96 (M × 10^4)
[8] = total drug concentration 6.96 (M × 10^4)
[9] = total drug concentration 7.95 (M × 10^4)
[10] = total drug concentration 8.95 (M × 10^4)
[11] = total drug concentration 9.94 (M × 10^4)
[12] = total drug concentration 14.91 (M × 10^4)
[13] = total drug concentration 19.88 (M × 10^4)
[14] = total drug concentration 24.86 (M × 10^4)
[15] = total drug concentration 30.40 (M × 10^4)
[16] = total drug concentration 41.20 (M × 10^4)
[17] = total drug concentration 50.70 (M × 10^4)
[18] = single IR oral dose of 10 mg HC, 5 male human subjects

In the case of CN[C@@H](C)[C@@H](O)c1ccccc1 (relative stereo) [pseudoephedrine, benzenemethanol, -[1-(methylamino)ethyl]-, [S—(R*,R*)]-, hydrochloride], the “rate of release of salt forms vs base forms” value [1] is given as “comparable”, the half-life ([2]; affected by urinary pH) is given as 9 to 16 h and the “dose excreted unchanged in the urine within 24 hours of dosing” value ([2]; in vivo) is given as “up to 90%”. The Tmax following administration ([2]; previously published studies) was 1.5 to 2.4 h.
For CC(C)NCC(O)COc1cccc2ccccc12.Cl (stereo not shown) [propranolol, propranolol hydrochloride], the “(l/g), r/(Df)” value [3, 5] was 4.88 L/g, the “Amount bound per gram of polymer” value [3, 5] was 4.59 M × 10^4 and the Bound drug concentration [3, 5] was 4.03 M × 10^4. For the same compound, the Free drug concentration [3, 5] was 0.94 M × 10^4, the “(l/g), r/(Df)” value [3, 6] was 3.97 L/g and the “Amount bound per gram of polymer” value [3, 6] was 4.84 M × 10^4. The Bound drug concentration [3, 6] was 4.25 M × 10^4, the Free drug concentration [3, 6] was 1.22 M × 10^4 and the “(l/g), r/(Df)” value [3, 7] was 3.60 L/g. For the same compound, the “Amount bound per gram of polymer” value [3, 7] was 5.16 M × 10^4, the Bound drug concentration [3, 7] was 4.53 M × 10^4 and the Free drug concentration [3, 7] was 1.43 M × 10^4. For the same compound, the “(l/g), r/(Df)” value [3, 8] was 3.21 L/g, the “Amount bound per gram of polymer” value [3, 8] was 5.86 M × 10^4 and the Bound drug concentration [3, 8] was 5.14 M × 10^4. For the same compound, the Free drug concentration [3, 8] was 1.82 M × 10^4, the “(l/g), r/(Df)” value [3, 9] was 2.49 L/g and the “Amount bound per gram of polymer” value [3, 9] was 6.23 M × 10^4. For the same compound, the Bound drug concentration [3, 9] was 5.46 M × 10^4, the Free drug concentration [3, 9] was 2.49 M × 10^4 and the “(l/g), r/(Df)” value [3, 10] was 1.71 L/g. For the same compound, the “Amount bound per gram of polymer” value [3, 10] was 6.12 M × 10^4, the Bound drug concentration [3, 10] was 5.37 M × 10^4 and the Free drug concentration [3, 10] was 3.57 M × 10^4. For the same compound, the “(l/g), r/(Df)” value [3, 11] was 1.62 L/g, the “Amount bound per gram of polymer” value [3, 11] was 6.66 M × 10^4 and the Bound drug concentration [3, 11] was 5.83 M × 10^4. For the same compound, the Free drug concentration [3, 11] was 4.10 M × 10^4, the “(l/g), r/(Df)” value [3, 12] was 1.17 L/g and the “Amount bound per gram of polymer” value [3, 12] was 8.61 M × 10^4. The Free drug concentration [3, 12] was 7.36 M × 10^4, the “(l/g), r/(Df)” value [3, 13] was 0.87 L/g and the “Amount bound per gram of polymer” value [3, 13] was 9.81 M × 10^4. The Bound drug concentration [3, 13] was 8.60 M × 10^4, the Free drug concentration [3, 13] was 11.28 M × 10^4 and the “(l/g), r/(Df)” value [3, 14] was 0.60 L/g. For the same compound, the “Amount bound per gram of polymer” value [3, 14] was 10.73 M × 10^4, the Bound drug concentration [3, 14] was 9.41 M × 10^4 and the Free drug concentration [3, 14] was 15.45 M × 10^4. The “(l/g), r/(Df)” value [3, 15] was 0.57 L/g, the “Amount bound per gram of polymer” value [3, 15] was 11.49 M × 10^4 and the Bound drug concentration [3, 15] was 10.08 M × 10^4. For the same compound, the Free drug concentration [3, 15] was 20.32 M × 10^4, the “(l/g), r/(Df)” value [3, 16] was 0.41 L/g and the “Amount bound per gram of polymer” value [3, 16] was 12.37 M × 10^4. For the same compound, the Bound drug concentration [3, 16] was 10.84 M × 10^4, the Free drug concentration [3, 16] was 30.35 M × 10^4 and the “(l/g), r/(Df)” value [3, 17] was 0.33 L/g. For the same compound, the “Amount bound per gram of polymer” value [3, 17] was 12.93 M × 10^4, the Bound drug concentration [3, 17] was 11.34 M × 10^4 and the Free drug concentration [3, 17] was 39.36 M × 10^4.
For COc1ccc2c3c1O[C@H]1C(=O)CC[C@H]4[C@@H](C2)N(C)CC[C@]314 (relative stereo) [hydrocodone, morphinan-6-one, 4,5-epoxy-3-methoxy-17-methyl-,(5)-, [R—(R*,R*)]-2,3-dihydroxybutane-dioate (1:1), hydrate (2:5)], the “elimination half-life of the parent-compound” value ([2]; in vivo) is listed as 3.8 to 4.5 h, the Tmax [2, 18] is listed as “approximately 1.3±0.3 hours” and the “mean peak serum concentration” value [2, 18] is listed as 23.6 ± 5.2 ng/mL. The “total excretion occurring in the first 24 hours” value ([2]; single oral dose) was “About 70%”.
For CN(C)CCC(c1ccc(Cl)cc1)c1ccccn1 (stereo not shown) [chlorpheniramine, 2-pyridinepropanamine, -(4-chlorophenyl)-N,N-dimethyl-, (Z)-2-butenedioate (1:1)], the “rate of release of salt forms vs base forms” value [1] is given as “comparable”, the “excreted in the feces” value ([2]; in vivo) is given as “Less than 1%” and the “excreted in the urine (metabolism to monodesmethyl and didesmethyl compounds)” value ([2]; in vivo) is given as “up to 26%”. For the same compound, the “renal elimination, share of total excretion” value ([2]; in vivo) was “approximately 50%”.
For CC(C)(C)NCC(O)c1ccc(O)c(CO)c1 (stereo not shown) [albuterol], the “release from beads suspended in 50%, 60% and 65% W/W of sucrose vs 40% W/W of sucrose” value [4] was “slower”.
